In the NIST ThermoML archive (doi:10.1016/j.fluid.2015.10.026):

Conditions: Liquid, Brillouin light scattering

CCC(C)(C)OC [2-methoxy-2-methylbutane]
Conditions | speed of sound [m/s]
293.15 K, 0 kPa | 1133.3
293.15 K, 1000 kPa | 1139.7
293.15 K, 2500 kPa | 1149
293.15 K, 4000 kPa | 1158.3
293.15 K, 5500 kPa | 1167.7
293.15 K, 7000 kPa | 1177.2
293.15 K, 8500 kPa | 1186.7
293.15 K, 10000 kPa | 1196.4
303.15 K, 10 kPa | 1089.4
303.15 K, 1000 kPa | 1099.1
303.15 K, 2500 kPa | 1109.3
303.15 K, 4000 kPa | 1119.3
303.15 K, 5500 kPa | 1129.3
303.15 K, 7000 kPa | 1139.3
303.15 K, 8500 kPa | 1149.2
303.15 K, 10000 kPa | 1159
313.15 K, 10 kPa | 1046.4
313.15 K, 1000 kPa | 1058.3
313.15 K, 2500 kPa | 1069.4
313.15 K, 4000 kPa | 1080.3
313.15 K, 5500 kPa | 1091
313.15 K, 7000 kPa | 1101.4
313.15 K, 8500 kPa | 1111.7
313.15 K, 10000 kPa | 1121.8
323.15 K, 20 kPa | 1004.2
323.15 K, 1000 kPa | 1017.4
323.15 K, 2500 kPa | 1029.4
323.15 K, 4000 kPa | 1041.1
323.15 K, 5500 kPa | 1052.5
323.15 K, 7000 kPa | 1063.5
323.15 K, 8500 kPa | 1074.2
323.15 K, 10000 kPa | 1084.6
333.15 K, 20 kPa | 962.62
333.15 K, 1000 kPa | 976.26
333.15 K, 2500 kPa | 989.25
333.15 K, 4000 kPa | 1001.8
333.15 K, 5500 kPa | 1013.9
333.15 K, 7000 kPa | 1025.6
333.15 K, 8500 kPa | 1036.8
333.15 K, 10000 kPa | 1047.6
343.15 K, 40 kPa | 921.56
343.15 K, 1000 kPa | 934.97
343.15 K, 2500 kPa | 948.94
343.15 K, 4000 kPa | 962.37
343.15 K, 5500 kPa | 975.26
343.15 K, 7000 kPa | 987.61
343.15 K, 8500 kPa | 999.41
343.15 K, 10000 kPa | 1010.7
353.15 K, 60 kPa | 880.86
353.15 K, 1000 kPa | 893.5
353.15 K, 2500 kPa | 908.48
353.15 K, 4000 kPa | 922.83
353.15 K, 5500 kPa | 936.54
353.15 K, 7000 kPa | 949.61
353.15 K, 8500 kPa | 962.05
353.15 K, 10000 kPa | 973.86
363.15 K, 90 kPa | 840.4
363.15 K, 1000 kPa | 851.87
363.15 K, 2500 kPa | 867.87
363.15 K, 4000 kPa | 883.16
363.15 K, 5500 kPa | 897.74
363.15 K, 7000 kPa | 911.59
363.15 K, 8500 kPa | 924.74
363.15 K, 10000 kPa | 937.16
373.15 K, 120 kPa | 800.06
373.15 K, 1000 kPa | 810.06
373.15 K, 2500 kPa | 827.11
373.15 K, 4000 kPa | 843.38
373.15 K, 5500 kPa | 858.86
373.15 K, 7000 kPa | 873.55
373.15 K, 8500 kPa | 887.46
373.15 K, 10000 kPa | 900.58
383.15 K, 160 kPa | 759.72
383.15 K, 1000 kPa | 768.09
383.15 K, 2500 kPa | 786.2
383.15 K, 4000 kPa | 803.47
383.15 K, 5500 kPa | 819.89
383.15 K, 7000 kPa | 835.47
383.15 K, 8500 kPa | 850.21
383.15 K, 10000 kPa | 864.1
393.15 K, 200 kPa | 719.27
393.15 K, 1000 kPa | 725.95
393.15 K, 2500 kPa | 745.14
393.15 K, 4000 kPa | 763.44
393.15 K, 5500 kPa | 780.85
393.15 K, 7000 kPa | 797.37
393.15 K, 8500 kPa | 813
393.15 K, 10000 kPa | 827.74
403.15 K, 240 kPa | 678.61
403.15 K, 1000 kPa | 683.64
403.15 K, 2500 kPa | 703.93
403.15 K, 4000 kPa | 723.29
403.15 K, 5500 kPa | 741.73
403.15 K, 7000 kPa | 759.25
403.15 K, 8500 kPa | 775.83
403.15 K, 10000 kPa | 791.49
413.15 K, 300 kPa | 637.63
413.15 K, 1000 kPa | 641.15
413.15 K, 2500 kPa | 662.56
413.15 K, 4000 kPa | 683.02
413.15 K, 5500 kPa | 702.53
413.15 K, 7000 kPa | 721.09
413.15 K, 8500 kPa | 738.7
413.15 K, 10000 kPa | 755.35
423.15 K, 360 kPa | 596.25
423.15 K, 1000 kPa | 598.5
423.15 K, 2500 kPa | 621.05
423.15 K, 4000 kPa | 642.63
423.15 K, 5500 kPa | 663.25
423.15 K, 7000 kPa | 682.91
423.15 K, 8500 kPa | 701.6
423.15 K, 10000 kPa | 719.33
433.15 K, 440 kPa | 554.37
433.15 K, 1000 kPa | 555.68
433.15 K, 2500 kPa | 579.38
433.15 K, 4000 kPa | 602.12
433.15 K, 5500 kPa | 623.89
433.15 K, 7000 kPa | 644.7
433.15 K, 8500 kPa | 664.54
433.15 K, 10000 kPa | 683.41
443.15 K, 540 kPa | 511.92
